Assay [1] addresses T1, LS α4β2 (α4(3)β2(2)) nAChR (Homo sapiens, UniProt P17787+P43681).
T1 construct: expressed in transfected cells; host or cells: Xenopus laevis oocytes injected with cRNA
Description: Bath application of test compound: inhibition of ACh-evoked peak currents in Xenopus oocytes. The class given is cell-based. The protocol: (§1) We have extended this approach to defined receptor subtypes expressed in Xenopus oocytes. Experiments were conducted on cells expressing HS α4β2 (α4(2)β2(3)), LS α4β2 (α4(3)β2(2)), or α7 nAChR.
(§2) cDNA: Human nAChR receptor clones and concatamers were obtained from Dr. Jon Lindstrom (University of Pennsylvania, Philadelphia Pa.). The human RIC-3 clone, obtained from Dr. Millet Treinin (Hebrew University, Jerusalem Israel), was co-injected with α7 to improve the levels and speed of receptor expression.
(§3) Oocyte preparation: Oocytes were surgically removed from mature Xenopus laevis frogs and injected with 50 nl (5-20 ng) of appropriate nAChR subunit cRNAs as described previously (Horenstein et al., 2008).
(§4) Experiments were conducted using OpusXpress 6000A (Molecular Devices, Union City Calif.) and analyzed as described previously (Papke and Papke, 2002; Horenstein et al., 2008; Papke and Stokes, 2010).
(§5) Initial experiments were run for 50 minutes after the introduction of the experimental compounds into the bath.

Assay [2] deals with T2, HS α4β2 (α4(2)β2(3)) nAChR (Homo sapiens, UniProt P17787+P43681).
T2 construct: expressed in transfected cells; host or cells: Xenopus laevis oocytes injected with cRNA
The description is as above. Format: cell-based. The protocol:
as §1, §2, §3, §4, §5

Assay [3] addresses T3, α7 nAChR (Homo sapiens, UniProt P36544).
T3 construct: expressed in transfected cells; host or cells: Xenopus laevis oocytes injected with cRNA
Description: Acute co-application of ACh and S 24795, model fit of net charge responses in oocytes. Format: cell-based. The text has this: (§6) FIG. 2.1 illustrates a model applied to the activation of nAChR by simultaneous co-applications of the full agonist “a” and a partial agonist “p”. […] The IMax of the full agonist is assigned a value of 1. The first and second terms of the equation represent the activation produced by the full agonist and partial agonists, respectively, scaled by their potencies and weighted by receptor availability. The third term allows noncompetitive effects of the partial agonist. If such noncompetitive activity is inhibitory, then ni is assigned a negative value.
(§7) Acute responses to agonist/partial agonist applications were fit with a general non-linear regression model, implemented as an option in a Windows data analyses and graphical presentation program (CAS Data Forge). The terms na, np, ni, Rmaxp, Inmaxp, EC50a, EC50p, and IC50p were given starting estimates based on the data obtained with the drugs applied separately. Tolerance factor (typically 1×10^−5) range limits for each parameter were specified. […] A predicted matrix was then calculated for each cell of the matrix, based on the a and p concentrations, the set of parameters listed above, and the governing equation. The residuals across all cells were calculated, and an iterative process was utilized to revise the parameters to minimize the residuals and allow the estimates to be revised accordingly. When the difference of estimates for any given parameter for consecutive iterations fell below the tolerance factor, that parameter was fixed at the last estimate. When all parameters were fixed or no convergent solution was found, the process stopped, and the set of parameters representing the best fit along with the resulting matrix was provided.
(§8) The Imax for the full agonist was constrained to 1 while the Imax for the partial agonist was a free parameter <1.0.
(§9) Curve fit values for the drugs when applied alone were used as seeds for the competitive interactions.

Assay [4] has as its target T3, α7 nAChR. Description: Bath application of test compound: modulation of ACh-evoked net charge responses in Xenopus oocytes. Format: cell-based. The protocol: as §1, §2, §3, §4, §5
Assay [5] deals with human α7 receptors (Homo sapiens, UniProt P36544). To be noted: cited from earlier work.
The conditions of assay [6]: preliminary findings of clinical trials, schizophrenics; cited from earlier work.
Assay [7] has as its target T4, α4β2α5 nAChR (Homo sapiens, UniProt P17787+P30532+P43681).
T4 construct: expressed in transfected cells; host or cells: Xenopus laevis oocytes injected with cRNA
Description: Agonist activation of α4β2α5 receptors in oocytes. The class given is cell-based. The source says:
(§10) Recently, attention has been drawn to α5 as a member of a gene cluster associated with high risk for cancer and heavy smoking (Saccone et al., 2007). In the periphery, α5 is most likely expressed in association with the other members of its gene cluster, α3 and β4.

In assay [8] the target is T5, α4(2)β2(2)α5 nAChR (Homo sapiens, UniProt P17787+P30532+P43681).
T5 construct: expressed in transfected cells; host or cells: Xenopus laevis oocytes injected with cRNA
Description: Bath application of test compound: inhibition of ACh-evoked responses in Xenopus oocytes. The class given is cell-based. As to the method:
as §2, §3, §4, §5, §10

Assay [9] concerns the target T6, α4(3)β2(2) nAChR (Homo sapiens, UniProt P17787+P43681).
T6 construct: expressed in transfected cells; host or cells: Xenopus laevis oocytes injected with cRNA
Description: Mecamylamine-sensitive steady-state activation during bath application, oocytes. Format: cell-based. To be noted: bath concentration 300 nM. The text has this:
(§11) In our bath application experiments we frequently saw small responses at the beginning of the bath applications, and sometimes there were significant shifts in baseline holding current that occurred over the long periods of recording. While increases in baseline current would be consistent with the stimulation of steady-state currents, baseline shifts can occur for other reasons as well, especially if the quality of the voltage clamp diminished over a long period of recording.
(§12) Even after just 30 minutes of continual bath application, a large shift in baseline was apparent. […] Table 3 provides a summary of the mecamylamine-sensitive steady-state currents measured for each of the drug-receptor combinations associated with drifting baselines.

Assay [10] deals with T7, α4(2)β2(3) nAChR (Homo sapiens, UniProt P17787+P43681).
T7 construct: expressed in transfected cells; host or cells: Xenopus laevis oocytes injected with cRNA
Described as above. The class given is cell-based. To be noted: bath concentration 100 nM.
From the text: as §11, §12

The target of assay [11] is T5, α4(2)β2(2)α5 nAChR. Described as above. To be noted: bath concentration 1 μM. Format: cell-based.
From the text: as §11, §12

Assay [12] has as its system α4β2 receptors. The following applies: cited from earlier work.
In assay [13] the target is T6, α4(3)β2(2) nAChR. Description: Acute co-application of ACh and cytisine, model fit of peak current responses in oocytes. The class given is cell-based.
From the text: as §6, §7, §8, §9

For assay [14] the following is noted: Mineur et al., 2009; cited from earlier work.
The test system of assay [15] is α4(3)β2(2), α4(2)β2(3) and α7 nAChR. Description: Baseline shifts / steady-state currents in the presence of bath-applied 3-pyr-Cyt, oocytes. Format: cell-based, human. To be noted: bath application. As to the method:
FIG. 2.8 is a summary of the effects of bath-applied 3-pyr-Cyt on α4(3)β2(2) and α4(2)β2(3) and α7 nAChR. Bath application experiments were conducted as described for cytisine, varenicline, and nicotine.
One such compound is 3-(pyridin-3′-yl)-cytisine (3-pyr-Cyt), an agent proposed to have very little likelihood of off-target α7 activity (Mineur et al., 2009).

Where [16] appears, read: read-out: IC50 for the inhibition of ACh evoked responses by bath applications of agonists and partial agonists, Table 2, after 30±4 min bath application, 30 μM ACh.
Setting [17] is: read-out: IC50 for the inhibition of ACh evoked responses by bath applications of agonists and partial agonists, Table 2, after 30±4 min bath application, 10 μM ACh.
Setting [18] is: noncompetitive inhibition factor.
Where [19] appears, read: noncompetitive inhibition factor, read-out: Inhibition IC50 of the partial agonist (best fit).
The mark [20] stands for this setting: relative to ACh maximum, ACh constrained to 1.
Setting [21] is: read-out: IC50, inhibition of ACh-evoked responses by prolonged bath application.
[22] abbreviates: Example 1, average of 30-40 min time points, 60 μM ACh, net charge, read-out: IC50, inhibition of ACh-evoked responses by prolonged bath application.
[23] abbreviates: IC50, inhibition of ACh-evoked responses by prolonged bath application.
Setting [24] is: IC50 for the inhibition of ACh evoked responses by bath applications of agonists and partial agonists.

Read-outs that look alike come from different tables or passages of the source.

T3 sequence (P36544 23-502): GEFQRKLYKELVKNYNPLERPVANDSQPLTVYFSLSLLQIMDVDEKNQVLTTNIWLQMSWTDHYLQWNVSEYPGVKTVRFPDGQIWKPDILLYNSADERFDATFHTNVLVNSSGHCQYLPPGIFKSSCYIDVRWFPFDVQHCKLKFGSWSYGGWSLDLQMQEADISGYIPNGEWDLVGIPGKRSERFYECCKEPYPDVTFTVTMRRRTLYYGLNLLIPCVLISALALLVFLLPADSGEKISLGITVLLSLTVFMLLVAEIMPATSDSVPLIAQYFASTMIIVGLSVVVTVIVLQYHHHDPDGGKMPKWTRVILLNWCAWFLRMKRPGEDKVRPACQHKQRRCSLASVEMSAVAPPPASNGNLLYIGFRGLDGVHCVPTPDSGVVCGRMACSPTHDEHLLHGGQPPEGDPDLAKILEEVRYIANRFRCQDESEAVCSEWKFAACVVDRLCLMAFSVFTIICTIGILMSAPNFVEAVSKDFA
T5 sequence (P17787 26-502): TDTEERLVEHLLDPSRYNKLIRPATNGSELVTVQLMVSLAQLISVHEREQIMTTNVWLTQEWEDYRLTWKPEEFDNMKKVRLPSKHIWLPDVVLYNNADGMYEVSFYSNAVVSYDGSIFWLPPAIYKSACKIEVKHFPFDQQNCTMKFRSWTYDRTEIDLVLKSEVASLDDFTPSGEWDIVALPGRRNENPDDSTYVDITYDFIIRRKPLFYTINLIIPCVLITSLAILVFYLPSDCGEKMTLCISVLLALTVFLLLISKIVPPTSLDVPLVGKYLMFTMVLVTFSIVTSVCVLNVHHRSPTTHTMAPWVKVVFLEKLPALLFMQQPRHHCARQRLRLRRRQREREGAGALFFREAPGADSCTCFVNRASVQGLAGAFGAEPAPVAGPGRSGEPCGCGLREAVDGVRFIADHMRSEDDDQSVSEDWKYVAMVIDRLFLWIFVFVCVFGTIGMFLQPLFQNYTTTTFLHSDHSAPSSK
T5 sequence (P43681 29-627 limits assumed): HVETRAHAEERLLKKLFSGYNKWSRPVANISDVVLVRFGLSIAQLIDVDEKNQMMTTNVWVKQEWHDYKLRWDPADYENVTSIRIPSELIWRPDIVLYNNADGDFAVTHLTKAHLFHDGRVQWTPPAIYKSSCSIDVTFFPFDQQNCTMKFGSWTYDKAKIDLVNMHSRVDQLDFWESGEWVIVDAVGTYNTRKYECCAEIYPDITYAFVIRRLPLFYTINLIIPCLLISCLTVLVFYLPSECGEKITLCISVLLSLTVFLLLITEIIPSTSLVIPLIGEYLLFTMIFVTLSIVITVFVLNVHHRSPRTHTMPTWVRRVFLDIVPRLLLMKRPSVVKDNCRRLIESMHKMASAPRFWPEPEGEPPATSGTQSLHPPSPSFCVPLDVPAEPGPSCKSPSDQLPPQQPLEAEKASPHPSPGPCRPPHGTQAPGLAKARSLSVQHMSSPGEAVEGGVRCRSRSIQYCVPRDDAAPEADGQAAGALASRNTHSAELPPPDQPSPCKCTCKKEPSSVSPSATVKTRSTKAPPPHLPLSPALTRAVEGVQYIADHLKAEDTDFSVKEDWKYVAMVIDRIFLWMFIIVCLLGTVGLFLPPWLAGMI
T5 sequence (P30532 23-468): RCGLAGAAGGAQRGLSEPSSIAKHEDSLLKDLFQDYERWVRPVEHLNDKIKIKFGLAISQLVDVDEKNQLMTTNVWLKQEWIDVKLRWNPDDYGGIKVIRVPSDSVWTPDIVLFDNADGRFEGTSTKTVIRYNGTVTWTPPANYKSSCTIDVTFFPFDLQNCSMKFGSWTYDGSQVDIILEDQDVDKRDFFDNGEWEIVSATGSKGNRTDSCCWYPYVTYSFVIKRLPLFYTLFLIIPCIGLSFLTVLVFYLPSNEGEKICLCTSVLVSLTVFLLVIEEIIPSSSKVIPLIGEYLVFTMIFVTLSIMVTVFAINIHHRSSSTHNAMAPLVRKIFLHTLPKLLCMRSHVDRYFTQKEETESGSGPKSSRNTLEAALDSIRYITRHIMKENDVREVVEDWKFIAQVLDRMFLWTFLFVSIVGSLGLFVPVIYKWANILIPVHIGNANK
T2 sequence (P17787 26-502): as the sequence (P17787 26-502) above
T2 sequence (P43681 29-627 limits assumed): as the sequence (P43681 29-627 limits assumed) above
T2 sequence (P17787 26-502): as the sequence (P17787 26-502) above
T6 sequence (P17787 26-502): as above
T6 sequence (P43681 29-627 limits assumed): as the sequence (P43681 29-627 limits assumed) above
T6 sequence (P43681 29-627 limits assumed): as above
T1 sequence (P17787 26-502): as the sequence (P17787 26-502) above
T1 sequence (P43681 29-627 limits assumed): as the sequence (P43681 29-627 limits assumed) above
T1 sequence (P43681 29-627 limits assumed): as above
T4 sequence (P17787 26-502): as the sequence (P17787 26-502) above
T4 sequence (P43681 29-627 limits assumed): as the sequence (P43681 29-627 limits assumed) above
T4 sequence (P30532 23-468): as the sequence (P30532 23-468) above
Chain of human α7 receptors (P36544 23-502): as the sequence (P36544 23-502) above
T7 sequence (P17787 26-502): as the sequence (P17787 26-502) above
T7 sequence (P43681 29-627 limits assumed): as the sequence (P43681 29-627 limits assumed) above
T7 sequence (P17787 26-502): as the sequence (P17787 26-502) above

As to `C[n+]1ccccc1CC(=O)c1ccc(Br)cc1` [S 24795, 2-[2-(4-bromophenyl)-2-oxoethyl]-1-methylpyridinium], the IC50 came to 36 µM in assay [1] (setting [16]); 53 µM in assay [2] (setting [17]); 1000 µM in assay [3] (setting [19]); 15 µM in assay [4] (read-out: IC50 for the inhibition of ACh evoked responses by bath applications of agonists and partial agonists, Table 2, after 30±4 min bath application, 60 μM ACh, * = inhibition following a phase of potentiation). The “Activation n (Hill coefficient, best fit)” value in assay [3] was found to be 0.85. Also, the “best fit IC50 relative to EC50 (higher)” value in assay [3] is 70 fold. The EC50 in [3] (net charge, read-out: Activation EC50 (best fit)) stood at 14 µM. Moreover, in assay [3] (setting [18]), the “Inhibition Inmax of the partial agonist (best fit)” value was found to be 1.0. In addition, the “Inhibition n (Hill coefficient, best fit)” value in assay [3] (setting [18]) came out at 0.26. The “Activation Rmax (best fit)” value in assay [3] (setting [20]) amounted to 0.20.
Turning to `COc1ccc(/C=C2\CCCN=C2c2cccnc2)c(OC)c1` [GTS-21, 3-(2,4-dimethoxybenzylidene)anabaseine], in assay [5] (Papke and Papke, 2002, read-out: EC50 for transient receptor activation), the EC50 is around 6 µM. The “efficacy for human α7 receptors, % that of ACh” value in assay [5] was “about 20%”. The IC50 in assay [1] (setting [21]) was found to be 1 ± 0.4 µM; in [2] (setting [21]), 0.17 ± 0.1 µM; in assay [4], 1.3 µM; in assay [4] (setting [22]), 1.2 ± 0.4 µM. Further, the “clinical ratings of negative symptoms” value in assay [6] is recorded as “improved clinical ratings of negative symptoms”. Further, the “α7 ACh-evoked responses above the baseline controls” value in [4] (bath application of 30 nM) stood at 37±15%. Moreover, in [4] (long-term bath application, net charge), the “bath concentrations at which α7 ACh-evoked responses were inhibited” value is on record as “greater than 300 nM”.
With `CN1CCCC1c1cccnc1` (stereo not shown) [Nicotine, nicotine], in assay [7], the “efficacy for α4β2α5 receptors, % that of ACh” value is “approximately 35%”.
For `O=c1cccc2n1C[C@@H]1CNC[C@H]2C1` [Cytisine, cytisine], the IC50 in [1] (setting [23]) turned out to be 0.085 ± 0.044 µM; in [1] (setting [24]), 0.027 ± 0.014 µM; in assay [2] it was 0.008 ± 0.005 µM; in assay [8], 0.0032 ± 0.0016 µM; in assay [13] (setting [19]), 32 µM; in [4] (setting [23]), 0.3 ± 0.2 µM. Besides, the IC50 in [4] (setting [24]) came to 1.2 µM. For the same molecule, the “Mecamylamine-sensitive steady-state activation relative to ACh maximum evoked transient responses” value turned out to be 1.1 ± 0.2% in assay [9], 1.4 ± 0.1% in assay [10] and 2.5 ± 0.5% in assay [11]. For the same molecule, the “efficacy for α4β2 receptors, % that of ACh” value in [12] was below 20%. The EC50 in assay [7] came to 0.018 ± 0.009 µM; in assay [13] (peak current, read-out: Activation EC50 (best fit)), 88 µM. Also, in [7], the “efficacy for α4β2α5 receptors, % that of ACh” value was found to be 6±1%. Also, in assay [13], the “Activation n (Hill coefficient, best fit)” value was determined as 0.61. For the same molecule, the “best fit IC50 relative to EC50” value in [13] is given as “three-fold lower”. In [13] (setting [18]), the “Inhibition Inmax of the partial agonist (best fit)” value amounted to 0.7. Also, the “Inhibition n (Hill coefficient, best fit)” value in assay [13] (setting [18]) is reported as 1.7. In addition, the “Activation Rmax (best fit)” value in [13] (setting [20]) was determined as 0.35. In assay [14], the “potency at reducing immobility compared with mecamylamine” value is “equipotent as the pure antagonist mecamylamine”.
`c1cnc2cc3c(cc2n1)C1CNCC3C1` [Varenicline, 7,8,9,10-tetrahydro-6,10-methano-6H-pyrazino (2,3-h)(3) benzazepine]: in assay [8] (read-out: inhibition of transient ACh-evoked responses), the inhibition at 1 µM came to 100%. The “efficacy for α4β2α5 receptors, % that of ACh” value in assay [7] was determined as 9±1%.
In the case of `O=c1c(-c2cccnc2)ccc2n1C[C@@H]1CNC[C@H]2C1` [3-pyr-Cyt, 3-(pyridin-3′-yl)-cytisine], the IC50 was 5.4 ± 4 µM in [1] (Example 1, average of 30-40 min time points, 30 μM ACh, peak currents, read-out: IC50, inhibition of ACh-evoked responses by prolonged bath application); 16 µM in assay [1] (setting [16]); 0.653 ± 0.5 µM in assay [2] (Example 1, average of 30-40 min time points, 10 μM ACh, peak currents, read-out: IC50, inhibition of ACh-evoked responses by prolonged bath application); 0.6 ± 0.5 µM in assay [2] (setting [17]); 2.3 µM in assay [8] (read-out: IC50 for the inhibition of ACh evoked responses by bath applications of agonists and partial agonists, Table 2, after 30±4 min bath application, 3 μM ACh); 103 ± 25 µM in assay [4] (setting [22]). In addition, in assay [2] (30 nM in bath), the “effect on ACh-evoked responses at low concentration” value was “partial inhibition”. Moreover, the “baseline shifts or steady-state currents” value in assay [15] is listed as “no baseline shifts or steady-state currents”. For the same molecule, in [4] (highest concentration tested), the “concentration at which significant inhibition of α7-mediated responses was achieved” value was 100 µM.
As for `C[N+](C)(C)CCO` [choline], the IC50 in [4] (setting [23]) came to 6.7 ± 1.2 µM.

A word on the IC50: it is the midpoint of a concentration-inhibition curve. In general, EC50 refers to the concentration needed to bring the measured effect to its halfway point. For orientation: inhibition means the relative decrease from the control value, in per cent.

These data come from US9233109B2, “Compositions, methods of use, and methods of treatment” (UNIVERSITY OF FLORIDA RESEARCH FOUNDATION, INC., priority 2010, dated 2016).
